Source: article PMC4809498, “Artonin E Induces Apoptosis via Mitochondrial Dysregulation in SKOV-3 Ovarian Cancer Cells” (PLoS ONE, 2016)
≈ marks a conversion by molar mass, not a printed value.

Columns and labels:
[1] = tested on: caspase-8; assay: Colorimetric caspase-8 activation assay; type: cell-based, human; settings: SKOV-3, 8 μg/mL, 48 and 72 h treatment
Experimental: (§1) Calorimetric assay of the activation of caspases-3, -8, and -9 was conducted using R & D system kit, USA. Briefly, in a T75cm^2 flask 90% confluent SKOV-3 cells were induced with artonin E for 24, 48, and 72 h. The induced cells were trypsinized and centrifuged at 1,800 rpm for 10 min. The fresh pellets were washed with cold PBS and immediately lysed with protein lysis buffer. The cell lysate was then kept on ice for 10 min, centrifuged at 10,000 g for 15 min, and transferred into a new tube. The fresh cell lysate (50 μL), which contained 100–200 μg of protein, was added into a 96-well plate in triplicate. Fifty microliters of reaction buffer and 5 μL of caspase were then transferred into each designated well before incubating the plate in a CO2 incubator at 37°C for 2 h. A microplate reader (Tecan Infinite M 200 PRO, Männedorf, Switzerland) was used for analysis at a wavelength of 405 nm.

[2] = tested on: SKOV-3 cells; assay: Annexin V-FITC/PI flow cytometry; type: cell-based, human; settings: SKOV-3, 8 μg/mL
Experimental: An Annexin V assay was performed using a BD Pharmingen^TM Annexin V-FITC Apoptosis Detection Kit (ApoAlert Annexin V, Clontech, California, USA). The cells were placed in a 6-well plate and left overnight to attach. Cells were then treated with 8 μg/mL of artonin E for 24, 48, and 72h. The treated cells were trypsinized and centrifuged at 1,500 rpm for 10 min to remove residual media. Subsequently, 1X binding buffer was added to rinse the fresh pellets before their resuspension in 200 μL of binding buffer. The cells were then mixed with 5 μL of Annexin V and 10 μL of PI and incubated for 15 min in the dark at room temperature. The prepared cells were immediately analyzed using flow cytometric analysis (FACS Canto 11 Becton-Dickson). Then, 300 μL of binding buffer was added to each sample to adjust the reaction volume to at least 500 μL for the flow cytometric analysis. The cells treated with DMSO (0.1%, v/v) were used as control.

[3] = target: arachidonate 5-lipoxygenase; parameters: method as in PMID 14559276; settings: read-out: IC50 value, arachidonate 5-lipoxygenase inhibition; cited from earlier work
[4] = tested on: caspase-3; assay: Colorimetric caspase-3 activation assay; type: cell-based, human; settings: SKOV-3, 8 μg/mL, 48 and 72 h treatment
Experimental: as §1

[5] = tested on: SKOV-3 cells; assay: Multiparametric Cytotoxicity 3 high-content screening; type: cell-based, human; settings: SKOV-3, 8 μg/mL
Experimental: Cellomics Multiparameter Cytotoxicity 3 kit (Thermo Scientific^TM, Pittsburgh, PA, USA) was used to perform simultaneous detection of the crucial apoptotic events in SKOV-3 cells treated with artonin E. Briefly, SKOV-3 cells were seeded at a density of 5000 cells/well in a black flat-bottomed 96-well plates (PerkinElmer, Inc., Wellsley, MA, USA) and left overnight to attach. The attached cells were treated with 8 μg/mL artonin E for 24, 48, and 72 h. The treated cells were then exposed to 50 μL of live cell staining solution for 30 min. The excess medium and live cell staining solution were gently removed and the cells were then fixed with 16% paraformaldehyde. After fixation, the cells were exposed with permeabilization buffer followed by blocking buffer for 15 min at room temperature. Primary Cytochrome C antibodies and secondary DyLight 649 conjugated goat antimouse IgG were added and allowed to interact for 1 h each. Hoechst 33342 dye was used to stain nuclei in SKOV-3 cells. Stained SKOV-3 cells in the 96-well plates were analyzed using ArrayScan high-content screening (HCS) system. All experiments were conducted in triplicates and experiments were repeated twice.

[6] = tested on: T1074 cells; assay: MTT cell viability assay, T1074; type: cell-based, human; settings: Homo sapiens
Experimental: (§2) Metastatic ovarian adenocarcinoma (SKOV-3) and normal Chinese hamster ovary (CHO) cell lines were originally obtained from the American Type Culture Collection (ATCC; Manassas, VA). SKOV-3 cells were cultured in McCoy’s 5A medium and CHO cells were cultured in F12K medium. A human periodontal ligament fibroblast cell line was purchased from Lonza, USA and maintained in stroma cell basal medium. T1074 (normal immortalized human ovarian surface epithelial cell line) was originally purchased from Applied Biological Materials (abm®) Canada and cultured in Prigrow 1 medium.
(§3) The inhibitory effects of artonin E and two positive controls paclitaxel and carboplatin were examined by MTT assay. Cells at a density of 5×10^3cells/well were placed in a 96-well plate and left for 24 h to attach. The attached cells were exposed to artonin E, paclitaxel, and carboplatin at different concentrations and incubated for 24, 48, and 72 h. Subsequently, 20 μL of 5 mg/mL MTT solution was added after drug treatment and the resulting mixture was incubated for 4 h to form purple formazan. Afterward, 100 μL of dimethyl sulfoxide (DMSO) was transferred into each well to dissolve the purple formazan, and results were measured using a microplate reader (Tecan Infinite M 200 PRO, Männedorf, Switzerland) at an absorbance of 570 nm. The half-maximal concentrations that caused cell growth inhibition (IC50 values) were obtained from the MTT viability growth curve.

[7] = tested on: caspase-8; assay: Western blot, caspase-8; type: cell-based, human; settings: SKOV-3, 8 μg/mL, after 48 and 72 h
Experimental: (§4) SKOV-3 cells were plated in a 75cm^2 culture flask and exposed to artonin E for 24, 48, and 72 h. Lysis buffer (50 mM Tris–HCl, pH 8.0; 120 mM NaCl, 0.5% NP-40; and 1 mM PMSF) was used to extract the total protein. Protein concentration was determined using a BCA protein assay reagent kit (Bio-Rad, USA). Equal amounts of protein (40 μg) extract were subjected to SDS-PAGE and electroblotted onto a polyvinylidenedifluoride membrane (Bio-Rad). Blots were then blocked with 5% non-fat milk in TBS-Tween buffer 7 (0.12 M Tris-base, 1.5 M NaCl, and 0.1% Tween 20) for 1 h at room temperature. After incubating with the appropriate primary antibody overnight at 4°C, the blots were washed and then incubated with horseradish peroxidase conjugated secondary antibody for 1 h at room temperature. The protein bands were detected using pico or femto chemiluminescence (ECL system) and visualized using a UV gel documentation system. The subsequent primary antibodies, which include those for β-actin (1:10,000), Bax (1:10,000), Bcl-2 (1:10,000), HSP-70 (1:10,000), survivin (1:10,000),caspase -3 (1:10,000), caspase -8 (1:10,000), caspase -9 (1;10,000) and cytochrome c (1:200) were purchased from Abcam, Cambridge, United Kingdom.

[8] = tested on: CHO cells; assay: MTT cell viability assay, CHO; type: cell-based, Chinese hamster; settings: Cricetulus griseus, 24 h treatment
Experimental: as §2
as §3, with “The half-maximal concentrations that caused cell growth inhibition (IC50 values) were obtained from the MTT viability growth curve.” left out

[9] = tested on: H460 cells; parameters: method as in PMID 23225436; settings: dose-dependent manner; cited from earlier work
[10] = tested on: Bax; assay: Western blot, Bax; type: cell-based, human; settings: SKOV-3, 8 μg/mL, time-dependent
Experimental: as §4

CC(C)=CCc1c(-c2cc(O)c(O)cc2O)oc2c3c(cc(O)c2c1=O)OC(C)(C)C=C3 [Artonin E, artonin E]
activation of caspase-8 [1]: significantly (p<0.05)elevated
cells at the early stage of apoptosis ([2]; 24 h post treatment): more than 40%
cells at the late stage of apoptosis ([2]; 48 h post treatment): more than 40%
IC50 [3]: 360 nM
activation of caspase-3 [4]: significantly (p<0.05)elevated
cytochrome c fluorescence intensities ([5]; prolonged treatment periods): increase
cell permeability ([5]; time-dependent (24, 48, 72 h)): marked increased
green fluorescence intensity of MMP ([5]; time-dependent (24, 48, 72 h)): significant (p<0.05) reduction
IC50 ([6]; 24 h treatment): 44.8 ± 0.76 µg/mL (≈ 103 µM)
IC50 ([6]; 48 h treatment): 37.5 ± 0.53 µg/mL (≈ 85.9 µM)
IC50 ([6]; 72 h treatment): 32.5 ± 0.5 µg/mL (≈ 74.5 µM)
protein expression level of caspase-8 [7]: up-regulated
IC50 [8]: 57.6 ± 2 µg/mL (≈ 132 µM)
anoikis (detachment-induced apoptosis) of H460 cells [9]: enhances anoikis
expression of Bax [10]: upregulates
